Assay results published in ChEMBL document CHEMBL3871282, “Neo-tanshinlactone D-ring modified novel analogues induce apoptosis in human breast cancer cell via DNA damage” (Bioorg Med Chem, 2017).
Activity calls are given as the source filed them. The rule behind the calls is not given here.

Legend:
[1] = (§1) Cytotoxicity against human MCF7 ER positive, PR positive/negative,HER2 negative cells assessed as cell growth inhibition after 24 hrs by MTT assay; format: functional, cell-based; conditions: MCF7, 24 h
MCF7 [2] = assay: as §1; format: functional, cell-based
[3] = Cytotoxicity against human SKBR3 ER negative, PR negative,HER2 positive cells assessed as cell growth inhibition after 24 hrs by MTT assay; format: functional, cell-based; conditions: SK-BR-3, 24 h
[4] = Cytotoxicity against human MDA-MB-231 ER negative, PR negative,HER2 negative cells assessed as cell growth inhibition after 24 hrs by MTT assay; format: functional, cell-based; conditions: MDA-MB-231, 24 h
[5] = Cytotoxicity against human HCT116 cells assessed as cell growth inhibition after 24 hrs by MTT assay; format: functional, cell-based; conditions: HCT-116, 24 h
[6] = Cytotoxicity against human HepG2 cells assessed as cell growth inhibition after 24 hrs by MTT assay; format: functional, cell-based; conditions: HepG2, 24 h
[7] = Cytotoxicity against human HeLa cells assessed as cell growth inhibition after 24 hrs by MTT assay; format: functional, cell-based
MCF7 [8] = assay: Antiproliferative activity against human MCF7 cells assessed as reduction in colony formation at 8 to 16 nM after 21 days by crystal violet staining based clonogenic assay; format: functional, cell-based
MCF7 [9] = assay: Induction of DNA double strand breaks in human MCF7 cells assessed as H2AX phosphorylation at near IC50 after 24 hrs by Western blot analysis; format: cell-based
MCF7 [10] = assay: Induction of DNA double strand breaks in human MCF7 cells assessed as increase in H2AX to gamma-H2AX ratio at near IC50 after 24 hrs by DAPI staining-based immunocytochemistry analysis relative to control; format: cell-based
MCF7 [11] = assay: Induction of DNA double strand breaks in human MCF7 cells assessed as gamma-H2AX foci at near IC50 after 24 hrs by DAPI staining based immunofluorescence assay; format: cell-based
MCF7 [12] = assay: Induction of DNA double strand breaks in human MCF7 cells assessed as increase in apoptotic nuclei after 24 hrs by TUNEL assay; format: cell-based
MCF7 [13] = assay: Induction of apoptosis in human MCF7 cells assessed as late apoptotic cells at 12 nM after 24 hrs by Annexin V-FITC/propidium iodide-dual staining based FACS analysis (reference value: 0.1%); format: functional
MCF7 [14] = assay: Induction of apoptosis in human MCF7 cells assessed as early apoptotic cells at 16 nM after 24 hrs by Annexin V-FITC/propidium iodide-dual staining based FACS analysis (reference value: 2.3%); format: functional
MCF7 [15] = assay: Induction of DNA double strand breaks in human MCF7 cells assessed as activation of phosphorylated ATM at ser1981 residue after 24 hrs immunoblot analysis; format: cell-based
MCF7 [16] = assay: Induction of DNA damage-mediated apoptosis in human MCF7 cells assessed as increase in E2F1 expression in nuclear fraction after 24 hrs by immunoblot analysis; format: cell-based
MCF7 [17] = assay: Induction of DNA damage-mediated apoptosis in human MCF7 cells assessed as downregulation of HDAC1 after 24 hrs by DAPI staining based immunocytochemistry analysis; format: cell-based
MCF7 [18] = assay: Induction of DNA damage-mediated apoptosis in human MCF7 cells assessed as decrease in HDAC1 levels in nuclear fraction at 8 to 16 nM after 24 hrs by immunoblot analysis; format: cell-based
MCF7 [19] = assay: Induction of DNA damage-mediated apoptosis in human MCF7 cells assessed as decrease in HDAC2 levels in nuclear fraction at 8 to 16 nM after 24 hrs by immunoblot analysis; format: cell-based
MCF7 [20] = assay: Induction of DNA damage-mediated apoptosis in human MCF7 cells assessed as decrease in HDAC1 expression in cytoplasmic fraction at 8 to 16 nM after 24 hrs by immunoblot analysis; format: cell-based
MCF7 [21] = assay: Induction of DNA damage-mediated apoptosis in human MCF7 cells assessed as increase in HDAC3 expression in cytoplasmic fraction at 8 to 16 nM after 24 hrs by immunoblot analysis; format: cell-based
MCF7 [22] = assay: Induction of DNA damage-mediated apoptosis in human MCF7 cells assessed as increase in cleaved caspase-3 level at 8 to 16 nM after 24 hrs by DAPI staining based immunocytochemistry analysis; format: cell-based
[23] = Cell cycle arrest in human MCF7 cells assessed as S phase at 8 nM after 24 hrs by propidium iodide staining based FACS analysis (reference value: 27.5%); format: functional
[24] = Cell cycle arrest in human MCF7 cells assessed as G2/M phase at 8 nM after 24 hrs by propidium iodide staining based FACS analysis (reference value: 28.3%); format: functional

For `O=c1cc(OCc2ccccc2)c2ccc3ccccc3c2[nH]1`, the IC50 [1] was 12 nM, the “growth inhibition (GI)” value (MCF7 [2]) was “Dose-dependent effect” and the IC50 [3] was 23.7 nM. For the same molecule, the IC50 [4] was 62.9 nM, the IC50 [5] was 44.1 nM and the IC50 [6] was 37000 nM. For the same molecule, the IC50 [7] was 52100 nM, the Activity (MCF7 [8]) was “Active” and the Activity (MCF7 [9]) was “Active”. For the same molecule, the fold change (FC) (MCF7 [10]) was 11, the Activity (MCF7 [11]) was 29.9% and the Activity (MCF7 [12]) was “Dose-dependent effect”. For the same molecule, the Activity (MCF7 [13]) was 5.8%, the Activity (MCF7 [14]) was 43.5% and the Activity (MCF7 [15]) was “Dose-dependent effect”. The Activity (MCF7 [16]) was “Active”, the Activity (MCF7 [17]) was “Dose-dependent effect” and the Activity (MCF7 [18]) was “Active”. The Activity (MCF7 [19]) was “Active”, the Activity (MCF7 [20]) was “Active” and the Activity (MCF7 [21]) was “Active”. The Activity (MCF7 [22]) was “Active”, the Activity [23] was 25.8% and the Activity [24] was 19%.
